According to patent publication US20260224486A1, “DIANHYDROHEXITOL BASED IONIZABLE LIPIDS FOR NUCLEIC ACID DELIVERY” (SANOFI PASTEUR INC., priority 2023, published 2026):

Tests used:
[1] = Lipid nanoparticle size and polydispersity index by dynamic light scattering (Malvern Zetasizer); format: physicochemical; conditions: hEPO mRNA LNP, Process A, Cationic Lipid:DMG-PEG2000:Cholesterol:DOPE 40:1.5:28.5:30 mol %, N/P 4
Text: The lipid nanoparticles in the examples of the present invention were formulated using Process A of WO 2018/089801 (see, e.g., Example 1 and FIG. 1 of WO 2018/089801). Process A (“A”) relates to a conventional method of encapsulating mRNA by mixing mRNA with a mixture of lipids, without first pre-forming the lipids into lipid nanoparticles. In an exemplary process, an ethanolic solution of a mixture of lipids (cationic lipid, phosphatidylethanolamine, cholesterol, and polyethylene glycol-lipid) at a fixed lipid to mRNA ratio were combined with an aqueous buffered solution of target mRNA at an acidic pH under controlled conditions to yield a suspension of uniform LNPs. After ultrafiltration and diafiltration into a suitable diluent system, the resulting nanoparticle suspensions were diluted to final concentration, filtered, and stored frozen at −80° C. until use.
(§1) Lipid nanoparticle formulations of Table 1 were prepared by Process A. All of the lipid nanoparticle formulations comprised hEPO mRNA and the different lipids (Cationic Lipid: DMG-PEG2000: Cholesterol: DOPE) in mol % ratios of 40:1.5:28.5:30 (Cationic Lipid: DMG-PEG2000: Cholesterol: DOPE).
The Polydispersity Index (Pdl) of lipid nanoparticles can be determined by diluting the formulation in 10% trehalose at about 0.1 mg/ml mRNA concentration and then measuring the size on Malvern zetasizer. The lipid nanoparticle size can be obtained with Malvern Zetasizer Nano-ZS.
Dynamic light scattering (DLS) measurements were performed using a Malvern Instruments Zetasizer with a backscattering detector angle of 173° and a 4-mW, 633-nm He—Ne laser (Worcestershire, UK). The samples were analyzed by diluting in 10% Trehalose and measuring the size and Poly dispersity Index (PDI) in an optical grade polystyrene cuvette.

[2] = mRNA encapsulation efficiency of lipid nanoparticles (RiboGreen assay); format: physicochemical; conditions: hEPO mRNA LNP, Process A, Cationic Lipid:DMG-PEG2000:Cholesterol:DOPE 40:1.5:28.5:30 mol %, N/P 4
Text: In embodiments, the lipid nanoparticle encapsulates a nucleic acid, optionally an mRNA encoding a peptide or protein. In embodiments, the lipid nanoparticle encapsulates an mRNA encoding a peptide or protein, optionally for use in a vaccine. In embodiments, the peptide is an antigen. As used herein, the phrase “encapsulation percentage” refers to the fraction of therapeutic agent (e.g. mRNA) that is effectively encapsulated within a liposomal-based vehicle (e.g. a lipid nanoparticle) relative to the initial fraction of therapeutic agent present in the lipid phase. In embodiments, the lipid nanoparticles have an encapsulation percentage for mRNA of at least 50%. In embodiments, the lipid nanoparticles have an encapsulation percentage for mRNA of at least 55%. In embodiments, the lipid nanoparticles have an encapsulation percentage for mRNA of at least 60%. In embodiments, the lipid nanoparticles have an encapsulation percentage for mRNA of at least 65%. In embodiments, the lipid nanoparticles have an encapsulation percentage for mRNA of at least 70%. In embodiments, the lipid nanoparticles have an encapsulation percentage for mRNA of at least 75%. In embodiments, the lipid nanoparticles have an encapsulation percentage for mRNA of at least 80%. In embodiments, the lipid nanoparticles have an encapsulation percentage for mRNA of at least 85%. In embodiments, the lipid nanoparticles have an encapsulation percentage for mRNA of at least 90%. In embodiments, the lipid nanoparticles have an encapsulation percentage for mRNA of at least 95%. In embodiments, the encapsulation percentage is calculated by performing the Ribogreen assay (Invitrogen) with and without the presence of 0.1% Triton-X 100.
as §1
The RiboGreen Assay is a fluorescence-based method for the determination of mRNA concentration (Total and Free) and % encapsulation using Quant-iT™ RiboGreen® RNA reagent in mRNA containing lipid nanoparticles.
• To each of the standards (Blank, mRNA-1, mRNA-2. mRNA-3, mRNA-4, mRNA-5) and Samples (free mRNA and total mRNA), add 1.0 mL of 200-fold Ribogreen Reagent Solution and gently mix by inversion. This is a 2× Dilution. • Add 200 μL of each standard and sample in triplicate using the reverse pipetting technique in a 96-well Costar Black with Clear Background Plate. Ensure no bubbles are present in the plate before the fluorescence reading. • Read the fluorescence signal using the below instrument parameters: • Read Type: Fluorescence, Bottom Read • Excitation: 485 nm; Cut-off: 515 nm; Emission: 530 nm • Plate Type: 96-well Costar Black with Clear Background
The average fluorescence from each calibration standard is plotted against the concentration to generate a linear calibration curve using the MS Excel software. The coefficient of determination (R^2) of calibration curve must be R^2>0.99.
[formula] • Where, • Y=average fluorescence value • m: slope • x: concentration (pg/mL) • c: y-intercept • Using the linear equation, calculate the concentration of free and total mRNA concentration in the test sample by replacing the y value in the equation with the average fluorescence value of each respective sample • Once the concentration is determined, the actual concentration in the sample can be back-calculated by multiplying the concentration in the test sample with the dilution factor (DF) as follows:
[formula] [formula] • Concentration of encapsulated mRNA can be determined by subtracting the concentration of free mRNA from the total mRNA. • % Encapsulation can then be calculated by taking the ratio of encapsulated mRNA over total mRNA and multiplying the result with 100.

BALB/cJ mice = assay: Delivery of hEPO mRNA by intramuscular administration of LNPs; serum hEPO by ELISA; format: in vivo, Mouse; conditions: for hEPO 6 Hr (ng/ml) Mean: Table 2, isosorbide-derived lipids; for hEPO 6 Hr (ng/ml) Mean / hEPO 6 Hr (ng/mL) Mean: mouse serum 6 hours post single IM injection of 0.1 μg hEPO mRNA LNP; for hEPO 6 Hr (ng/mL) Mean / hEPO 24 Hr (ng/ml) Mean: Table 3, isomannide-derived lipids; for hEPO 24 Hr (ng/ml) Mean: mouse serum 24 hours post single IM injection of 0.1 μg hEPO mRNA LNP
Protocol: In summary, lipid screening studies were conducted with female BALB/cJ mice 6-8 weeks of age. Mice were dosed with 0.1 μg in 30 μL of LNPs by a single intramuscular (IM) injection into the gastrocnemius leg muscle. Blood samples were taken 6 and 24 hours post injection and hEPO levels were measured in the blood serum of the mice using an ELISA assay according to the manufacture's protocol.
Treatment Regimen: On Day 1, animals from Groups 1-33 were dosed via intramuscular injection while under light isoflurane anesthesia according to the study design table above. Animals in Groups 1-33 were injected with EPO mRNA LNPs in the right leg only. Groups 1 and 17 animals received MC3 control.
Interim Sample Collections: Interim whole blood (^~50 μL) was collected by tail snip or saphenous vein at 6 and 24 hours post dose administration (±5%). Blood samples were collected into serum separator tubes, allowed to clot at room temperature for at least 10 minutes, centrifuged at ambient temperature at minimum 1000 g for 10 minutes and the serum was extracted. All serum samples were stored at nominally −70° C. until analysis hEPO by the Testing Facility. The results of the EPO analysis were included in the Data Submission.
Terminal Blood Collections: Whole blood was collected via cardiac puncture into serum separator tube, allowed to clot at room temperature for at least 10 minutes, centrifuged at ambient temperature at minimum 1000 g for 10 minutes and the serum was extracted. Serum samples were stored at nominally −70° C. until analyzed for hEPO by the Test Facility.
ELISA Assay: Human erythropoietin (hEPO) levels in sera samples were determined by ELISA kit (R&D systems, Cat #DEP-00) according to the manufactory instruction and the results were included in the Data Submission. The “shaker” protocol was used. The serum samples were diluted between 1:40 and 1:100.

| Polydispersity Index (PDI) [1] | Size (nm) [1] | Encapsulation efficiency (EE) % [2] | Structure (SMILES) | hEPO 6 Hr (ng/ml) Mean (BALB/cJ mice) | hEPO 6 Hr (ng/mL) Mean (BALB/cJ mice) | hEPO 24 Hr (ng/ml) Mean (BALB/cJ mice) |
| --- | --- | --- | --- | --- | --- | --- |
| 0.2 | 94 nm | 94% | CCCCCCCCCCCOC(=O)CCCC(O)CN(CCCC(=O)O[C@@H]1CO[C@H]2[C@@H]1OC[C@@H]2OC(=O)CCCN(CC(O)CCCCCCCCCC)CC(O)CCCCCCCCCC)CC(O)CCCCCC(=O)OC(CCCCCCCC)CCCCCCCC (stereo in doubt) [Compound 32] | 33.2 ng/mL | – | – |
| 0.14 | 93 nm | 85% | CCCCCCCCC(O)CN(CCCC(=O)O[C@@H]1CO[C@H]2[C@@H]1OC[C@H]2OC(=O)CCCN(CC(O)CCCCCCCC)CC(O)CCCCCCCC)CC(O)CCCCCCCC (stereo partly drawn) [Compound 1] | – | 42.5 ng/mL | – |
| 0.16 | 77 nm | 68% | CCCCCCCCC(O)CN(CCCCC(=O)O[C@@H]1CO[C@H]2[C@@H]1OC[C@H]2OC(=O)CCCCN(CC(O)CCCCCCCC)CC(O)CCCCCCCC)CC(O)CCCCCCCC (stereo partly drawn) [Compound 2] | – | 36.3 ng/mL | – |
| 0.16 | 78 nm | 94% | CCCCCCCCCCC(O)CN(CCCCC(=O)O[C@@H]1CO[C@H]2[C@@H]1OC[C@H]2OC(=O)CCCCN(CC(O)CCCCCCCCCC)CC(O)CCCCCCCCCC)CC(O)CCCCCCCCCC (stereo partly drawn) [Compound 4] | – | 43.2 ng/mL | – |
| 0.11 | 107 nm | 75% | CCCCCCCCCCCCC(O)CN(CCCCC(=O)O[C@@H]1CO[C@H]2[C@@H]1OC[C@H]2OC(=O)CCCCN(CC(O)CCCCCCCCCCCC)CC(O)CCCCCCCCCCCC)CC(O)CCCCCCCCCCCC (stereo partly drawn) [Compound 5] | – | 26.3 ng/mL | – |
| 0.16 | 114 nm | 99% | CCCCCCCCCCCCCCC(O)CN(CCCC(=O)O[C@@H]1CO[C@H]2[C@@H]1OC[C@H]2OC(=O)CCCN(CC(O)CCCCCCCCCCCCCC)CC(O)CCCCCCCCCCCCCC)CC(O)CCCCCCCCCCCCCC (stereo partly drawn) [Compound 6] | – | 40.9 ng/mL | – |
| 0.13 | 91 nm | 95% | CCCCCCCCCCCCCCC(O)CN(CCCC(=O)O[C@@H]1CO[C@H]2[C@@H]1OC[C@H]2OC(=O)CCCCN(CC(O)CCCCCCCCCC)CC(O)CCCCCCCCCC)CC(O)CCCCCCCCCCCCCC (stereo partly drawn) [Compound 8] | – | 25.7 ng/mL | – |
| 0.1 | 114 nm | 91% | CCCCCCCCCCCOC(=O)CCCC(O)CN(CCCC(=O)O[C@@H]1CO[C@H]2[C@@H]1OC[C@H]2OC(=O)CCCN(CC(O)CCCCCCCCCC)CC(O)CCCCCCCCCC)CC(O)CCCCCC(=O)OC(CCCCCCCC)CCCCCCCC (stereo partly drawn) [Compound 9] | – | 30.7 ng/mL | 19.8 ng/mL |
| 0.1 | 120 nm | 94% | CCCCCCCCCCCOC(=O)CCCC(O)CN(CCCC(=O)O[C@@H]1CO[C@H]2[C@@H]1OC[C@H]2OC(=O)CCCN(CC(O)CCCCCC(=O)OC(CCCCCCCC)CCCCCCCC)CC(O)CCCC(=O)OCCCCCCCCCCC)CC(O)CCCCCC(=O)OC(CCCCCCCC)CCCCCCCC (stereo partly drawn) [Compound 11] | – | 36 ng/mL | – |
| 0.11 | 88 nm | 91% | CCCCCC/C=C\COC(=O)CCCCCC(O)CN(CCCC(=O)O[C@@H]1CO[C@H]2[C@@H]1OC[C@H]2OC(=O)CCCN(CC(O)CCCCCCCCCC)CC(O)CCCCCCCCCC)CC(O)CCCCCC(=O)OC/C=C\CCCCCC (stereo partly drawn) [Compound 15] | – | 22.8 ng/mL | – |
| 0.11 | 84 nm | 77% | CCCCCC/C=C\COC(=O)CCCCCC(O)CN(CCCC(=O)O[C@@H]1CO[C@H]2[C@@H]1OC[C@H]2OC(=O)CCCN(CC(O)CCCCCC(=O)OC/C=C\CCCCCC)CC(O)CCCCCC(=O)OC/C=C\CCCCCC)CC(O)CCCCCC(=O)OC/C=C\CCCCCC (stereo partly drawn) [Compound 16] | – | 9.4 ng/mL | – |
| 0.13 | 94 nm | 74% | CCCCCCCCCCC(O)CN(CCCC(=O)O[C@@H]1CO[C@H]2[C@@H]1OC[C@H]2OC(=O)CCCN(CC(O)CCCCCC(=O)OC(CCCCCCCC)CCCCCCCC)CC1CCCC(=O)O1)CC(O)CCCCCCCCCC (stereo partly drawn) [Compound 19] | – | 10.7 ng/mL | 5.35 ng/mL |
| 0.13 | 95 nm | 89% | CCCCCCCCC(O)CN(CCCC(=O)O[C@H]1CO[C@H]2[C@@H]1OC[C@H]2OC(=O)CCCN(CC(O)CCCCCCCC)CC(O)CCCCCCCC)CC(O)CCCCCCCC (stereo partly drawn) [Compound 20] | 25.2 ng/mL | – | – |
